Test [1] has as its system patients with locally advanced, unresectable, or metastatic pancreatic adenocarcinoma. The note with it: single agent, randomized trials; cited from earlier work.
In test [2] the test system is patients with metastatic pancreatic cancer. Particulars: first-line, Conroy et al. 2011; cited from earlier work.
For test [3], the system named is patients with unresectable pancreatic cancer. The note with it: Moore et al. 2007; cited from earlier work.
Test [4] has as its system Ba/F3 cells expressing human or mouse wild-type c-Kit. Particulars: read-out: IC50, stem cell factor-induced proliferation and c-Kit tyrosine phosphorylation; cited from earlier work.
The test system of test [5] is patients with advanced/metastatic pancreatic cancer. In words: Ancillary pharmacogenomic study of AB07012, overall survival by gene expression predictor factors. The test is classed as in vivo, human. The note with it: full cohort with genomic information (n=119).
Test [6] has as its system human cord blood mast cells. Particulars: cited from earlier work.
Test [7] concerns the target discoidin domain receptor family member 1 (DDR1) kinase (Homo sapiens, UniProt Q08345). The note with it: cited from earlier work.
Test [8] concerns Ba/F3 cells expressing PDGFR-α. Particulars: read-out: 1050, PDGF-BB-stimulated proliferation and PDGFR-α tyrosine phosphorylation; cited from earlier work.

Consider three compounds from patent US10238649B2 (AB SCIENCE, priority 2012, dated 2019).

Chain of discoidin domain receptor family member 1 (DDR1) kinase (Q08345 19-913, species assumed): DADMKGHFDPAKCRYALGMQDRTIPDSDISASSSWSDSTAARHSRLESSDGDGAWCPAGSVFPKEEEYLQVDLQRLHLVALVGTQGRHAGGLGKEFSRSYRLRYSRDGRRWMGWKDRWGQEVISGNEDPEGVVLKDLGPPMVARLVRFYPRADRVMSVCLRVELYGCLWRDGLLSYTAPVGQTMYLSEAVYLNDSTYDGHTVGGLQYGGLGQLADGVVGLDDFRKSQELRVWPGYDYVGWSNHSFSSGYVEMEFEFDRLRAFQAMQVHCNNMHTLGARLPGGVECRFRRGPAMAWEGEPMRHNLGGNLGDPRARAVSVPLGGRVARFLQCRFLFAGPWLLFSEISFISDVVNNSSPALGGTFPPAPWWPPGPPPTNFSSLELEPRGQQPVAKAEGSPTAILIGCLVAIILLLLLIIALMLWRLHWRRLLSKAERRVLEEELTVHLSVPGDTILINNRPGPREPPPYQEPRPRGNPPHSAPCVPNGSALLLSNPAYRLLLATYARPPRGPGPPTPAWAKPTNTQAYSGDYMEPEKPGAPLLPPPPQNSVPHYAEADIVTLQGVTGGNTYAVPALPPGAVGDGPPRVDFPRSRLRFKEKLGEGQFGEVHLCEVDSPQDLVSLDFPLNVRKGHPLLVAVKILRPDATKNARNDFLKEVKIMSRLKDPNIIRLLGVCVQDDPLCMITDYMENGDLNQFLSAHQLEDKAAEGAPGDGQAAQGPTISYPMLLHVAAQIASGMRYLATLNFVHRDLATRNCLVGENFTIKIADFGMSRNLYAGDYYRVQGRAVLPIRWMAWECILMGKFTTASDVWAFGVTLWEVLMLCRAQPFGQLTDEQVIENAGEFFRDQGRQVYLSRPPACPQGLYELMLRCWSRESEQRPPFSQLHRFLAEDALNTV

For the compound `Nc1ccn(C2OC(CO)C(O)C2(F)F)c(=O)n1` (stereo not shown) [gemcitabine, 4-amino-1-[3,3-difluoro-4-hydroxy-5-(hydroxymethyl)tetrahydrofuran-2-yl]-1H-pyrimidin-2-one], in test [1], the 12-month survival entry is “approximately 20%” and the median survival result is “approximately 6 months”. Further, in test [2], the objective response rate is 9.4% and the “survival (months lived)” value is listed as 6.8 months. In addition, in test [3], the 1-year survival rate is 17% and the “median OS” value is on record as 5.91 months.
`Cc1ccc(NC(=O)c2ccc(CN3CCN(C)CC3)cc2)cc1Nc1nc(-c2cccnc2)cs1` [masitinib, 4-(4-methylpiperazin-1-ylmethyl)-N-[4-methyl-3-(4-pyridin-3ylthiazol-2-ylamino)phenyl]benzamide]: the results for the IC50 in test [4] and in test [8] were 150 ± 80 nM and 300 ± 5 nM, respectively. Besides, the “median OS” value in test [5] was 7.7 months. The “FcεRI-mediated degranulation of human cord blood mast cells” value in test [6] is “inhibition”. Besides, in test [7], the “inhibition of DDR1 autophosphorylation” value was “pronounced inhibition”.
As to Folfirinox, in test [2], the objective response rate is listed as 31.6% and the “survival (months lived)” value is 11.1 months.
